From PubChem BioAssay (NCI)
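Abbreviation: GI50, concentration required for 50% inhibition of growth. The concentration for full growth arrest is given as TGI.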

Legend:
Assay in all cases: inhibition of tumour cell growth, NCI panel, 384-well format
A498 renal = system: A498 renal
MALME-3M melanoma = system: MALME-3M melanoma
CCRF-CEM leukemia = system: CCRF-CEM leukemia
UACC-257 melanoma = system: UACC-257 melanoma
OVCAR-8 ovarian = system: OVCAR-8 ovarian
SK-MEL-5 melanoma = system: SK-MEL-5 melanoma
NCI-H322M lung = system: NCI-H322M lung
OVCAR-5 ovarian = system: OVCAR-5 ovarian
MCF7 breast = system: MCF7 breast
MOLT-4 leukemia = system: MOLT-4 leukemia
NCI-H522 lung = system: NCI-H522 lung
HT29 colon = system: HT29 colon
HOP-62 NSCLC = system: HOP-62 NSCLC

SMILES | GI50 (A498 renal) [µM] | TGI (A498 renal) [µM] | GI50 (MALME-3M melanoma) [µM] | TGI (MALME-3M melanoma) [µM] | GI50 (CCRF-CEM leukemia) [µM] | TGI (CCRF-CEM leukemia) [µM] | GI50 (UACC-257 melanoma) [µM] | TGI (UACC-257 melanoma) [µM] | GI50 (OVCAR-8 ovarian) [µM] | TGI (OVCAR-8 ovarian) [µM] | GI50 (SK-MEL-5 melanoma) [µM] | TGI (SK-MEL-5 melanoma) [µM] | GI50 (NCI-H322M lung) [µM] | TGI (NCI-H322M lung) [µM] | GI50 (OVCAR-5 ovarian) [µM] | TGI (OVCAR-5 ovarian) [µM] | GI50 (MCF7 breast) [µM] | TGI (MCF7 breast) [µM] | GI50 (MOLT-4 leukemia) [µM] | TGI (MOLT-4 leukemia) [µM] | further results
CC1(N)CCN(c2cnc(-c3cccc(Cl)c3Cl)c(N)n2)CC1 | 4.27 | 19.7 | 14.8 | 28 | 17 | 31.2 | 16.4 | 30.1 | 27.9 | > 100 | 15.3 | 28.7 | 3.73 | 47.2 | 15.7 | 47.6 | 15.5 | 29.7 | 16.3 | 30.7 | GI50 (NCI-H522 lung): 2.64 µM; TGI (NCI-H522 lung): 19.2 µM; GI50 (HT29 colon): 18 µM; TGI (HT29 colon): 34.7 µM; GI50 (HOP-62 NSCLC): 24.3 µM; TGI (HOP-62 NSCLC): > 74 µM
NS(=O)(=O)NCCNc1nonc1C(=Nc1ccc(F)c(Br)c1)NO | 4.27 | > 80.2 | 30.5 | > 100 | 17.6 | 35.3 | 28.7 | > 82.6 | 46.9 | > 100 | 35.9 | > 92.6 | 34.2 | > 100 | 49.9 | > 100 | 38.8 | > 100 | 15.9 | 29.8 | GI50 (NCI-H522 lung): 16.5 µM; TGI (NCI-H522 lung): 47.7 µM; GI50 (HT29 colon): 41 µM; TGI (HT29 colon): > 100 µM; GI50 (HOP-62 NSCLC): 39.9 µM; TGI (HOP-62 NSCLC): > 100 µM
